{
  "source": "patent US20220056043A1",
  "about": "“NITROGEN-CONTAINING FUSED CYCLIC COMPOUND, PREPARATION METHOD THEREFOR AND USE THEREOF” (SICHUAN KELUN-BIOTECH BIOPHARMACEUTICAL CO., LTD., priority 2019, published 2022)",
  "key": {"hNLRP3 inflammasome": {"molecular_target": "T1, hNLRP3 inflammasome (Homo sapiens, UniProt Q96P20)", "T1 construct": "endogenous in cells; host or cells: THP-1 cells, PMA-differentiated", "T1 sequence (Q96P20 whole entry)": "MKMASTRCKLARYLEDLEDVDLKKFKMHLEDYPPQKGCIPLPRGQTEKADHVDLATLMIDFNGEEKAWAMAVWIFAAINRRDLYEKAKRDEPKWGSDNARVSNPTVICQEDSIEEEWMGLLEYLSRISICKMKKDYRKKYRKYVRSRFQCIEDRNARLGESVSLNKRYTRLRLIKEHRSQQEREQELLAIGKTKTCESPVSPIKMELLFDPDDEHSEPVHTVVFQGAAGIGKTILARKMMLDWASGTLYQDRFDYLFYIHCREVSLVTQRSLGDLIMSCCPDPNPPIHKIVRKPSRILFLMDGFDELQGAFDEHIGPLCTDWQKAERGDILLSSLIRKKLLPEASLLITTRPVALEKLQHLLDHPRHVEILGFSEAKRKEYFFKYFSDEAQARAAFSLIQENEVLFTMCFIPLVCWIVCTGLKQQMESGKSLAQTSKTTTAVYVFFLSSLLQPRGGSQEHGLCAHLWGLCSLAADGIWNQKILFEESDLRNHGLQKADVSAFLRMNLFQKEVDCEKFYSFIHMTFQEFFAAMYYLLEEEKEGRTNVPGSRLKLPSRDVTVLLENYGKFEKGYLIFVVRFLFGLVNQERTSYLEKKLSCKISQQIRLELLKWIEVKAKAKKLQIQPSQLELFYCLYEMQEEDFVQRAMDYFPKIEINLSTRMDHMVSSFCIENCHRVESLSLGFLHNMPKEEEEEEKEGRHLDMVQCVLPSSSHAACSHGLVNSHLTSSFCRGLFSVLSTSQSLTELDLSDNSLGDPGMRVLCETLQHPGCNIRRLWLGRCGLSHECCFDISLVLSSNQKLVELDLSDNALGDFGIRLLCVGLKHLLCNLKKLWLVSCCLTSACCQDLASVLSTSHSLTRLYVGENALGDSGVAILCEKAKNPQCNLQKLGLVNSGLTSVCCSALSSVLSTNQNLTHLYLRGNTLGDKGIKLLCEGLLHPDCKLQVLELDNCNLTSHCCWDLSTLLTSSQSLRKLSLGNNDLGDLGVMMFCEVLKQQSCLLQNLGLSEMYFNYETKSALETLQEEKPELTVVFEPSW", "experiment": "Agonistic effect on the expression of IL-1β in THP-1 cells after PMA-induced differentiation (HTRF)", "assay_type": "cell-based", "conditions": "IL-1β level, PMA-differentiated THP-1 cells, 6 hours", "description": "Experimental Example 1: Agonistic Effect of the Compound of the Invention on the Expression of IL-1β in THP-1 Cells after PMA-Induced Differentiation\nIn this test, a HTRF (homogeneous time-resolved fluorescence) detection method was used to test the effect of the compound of the invention on the level of downstream cytokine IL-1β of NLRP3 to evaluate the agonistic effect of the compound on hNLRP3 inflammasome or hNLRP3 inflammasome pathway at a cellular level.\nReagent: RPMI 1640 (Hyclone); heat-inactivated FBS (fetal bovine serum) (Gibco); PMA (phorbol myristal acetate) (Beyotime)\nKit: IL-1β assay kit (CISIO)\n1) THP-1 cells in a logarithmic growth phase were seeded in a T75 culture flask at a density of 5×10^5 cells/well, and cultured in a cell incubator at 37° C., 5% CO2 for 24 hours, and then 1 μM PMA was used to induce THP-1 suspension cells to become adherent macrophages. The medium was RPMI 1640 containing 10% heat-inactivated FBS and 0.05 mM β-mercaptoethanol.\n2) The cells were induced and cultured for 24 hours. Then the adherent cells were trypsinized and centrifuged at 1000 rpm for 5 min. The supernatant was removed, and the cells were resuspended to a density of 2×10^6 cells/mL in RPMI 1640 medium containing 2% heat-inactivated FBS. 50 μL/well of cell resuspension was taken and spread on a 96-well plate such that the number of cells in each well was 1×10^5.\n3) An appropriate amount of 10 mM DMSO solution of the compound to be tested was taken and diluted to a concentration of 2× test concentration with RPMI 1640 medium containing 2% heat-inactivated FBS. 50 μL/well of the dilution was added to the cells in the 96-well plate, and mixed well. The plate was placed in a cell incubator at 37° C., 5% CO2 for 6 hours. The supernatant was collected, and the level of IL-1β was measured in accordance with the instructions of the IL-1β detection kit.\n4) EC50 was fitted by the GraphPad software log(agonist) vs. response—Variable slope four-parameter method."}, "[1]": {"test_system": "CT26 mouse colon cancer subcutaneously transplanted tumor", "experiment": "In vivo efficacy on bilaterally inoculated CT26 mouse colon cancer subcutaneously transplanted tumor", "conditions": "for tumor volume (mm^3) day 0 / tumor volume (mm^3) day 14: twice a week for two weeks; for tumor volume (mm^3) day 0: day 0 (grouping); for tumor volume (mm^3) day 14 / TGI (%): day 14", "experimental": "Experimental Example 7: In Vivo Efficacy of the Compounds of the Invention on Bilaterally Inoculated CT26 Mouse Colon Cancer Subcutaneously Transplanted Tumor\n1) CT26 mouse colon cancer cells were cultured in a monolayer in vitro. When the cells were in a logarithmic growth phase, the cells were collected by centrifugation and counted.\n2) 0.1 ml of PBS resuspension containing 3×10^5 CT26 cells was inoculated subcutaneously in the bilateral shoulder blades of mice respectively. When the bilateral scapular tumors of the mice grew to a volume of about 100 mm^3, the mice were randomly divided into 4 groups according to the bilateral tumor volumes, 8 mice in each group.\n3) Compound 115s was injected into the tumor at the right scapular tumor of mice at 10 μg/time, 50 μg/time, and 250 μg/time, respectively, twice a week for two consecutive weeks. The bilateral tumor volumes and the body weight of the animals were measured.\n4) Tumor inhibition rate, TGI (%), was calculated based on the tumor volumes to evaluate the inhibitory effect of Compound 115s on the growth of transplanted tumors in the mice. The calculation formula was: TGI (%)=100%−(TVt−TV0)/(CVt−CV0)×100%. When the tumor was regressing, the calculation formula was: TGI (%)=100%−(TVt−TV0)/TV0×100%, wherein TV0 was the average tumor volume of the tested compound group at the time of grouping; TVt was the average tumor volume of the tested compound group at the time of measurement on the t^th day; CV0 was the average tumor volume of the vehicle group at the time of grouping; and CVt was the average tumor volume of the vehicle group at the time of measurement on the t^th day. For statistical analysis of differences between the two groups, student's t-test was used to calculate the P value."}, "[2]": {"conditions": "administration side, 10 μg/time intratumoral"}, "[3]": {"conditions": "administration side, 50 μg/time intratumoral"}, "[4]": {"conditions": "administration side, 250 μg/time intratumoral"}, "[5]": {"conditions": "non-administration side, 10 μg/time intratumoral (other side)"}, "[6]": {"conditions": "non-administration side, 50 μg/time intratumoral (other side)"}, "[7]": {"conditions": "non-administration side, 250 μg/time intratumoral (other side)"}},
  "note": "Counter-ions that a name gives are not always drawn.",
  "data": [
    {"smiles": "COCCNc1cc(N)nc2cc(-c3ccn[nH]3)sc12", "note": "[Compound 100s, N^7-(2-methoxyethyl)-2-(1H-pyrazol-5-yl)thieno[3,2-b]pyridine-5,7-diamine hydrochloride]", "values": [
      {"measurement": "EC50", "setting": "hNLRP3 inflammasome", "result": 0.01, "unit": "µM"}
    ]},
    {"smiles": "Nc1cc(NC2CCCC2)c2sc(-c3ccn[nH]3)cc2n1", "note": "[Compound 110s, N^7-cyclopentyl-2-(1H-pyrazol-5-yl)thieno[3,2-b]pyridine-5,7-diamine hydrochloride]", "values": [
      {"measurement": "EC50", "setting": "hNLRP3 inflammasome", "result": 0.03, "unit": "µM"}
    ]},
    {"smiles": "CCC(CC)Nc1cc(N)nc2cc(-c3ccn[nH]3)sc12", "note": "[Compound 113s, N^7-(pent-3-yl)-2-(1H-pyrazol-5-yl)thieno[3,2-b]pyridine-5,7-diamine hydrochloride]", "values": [
      {"measurement": "EC50", "setting": "hNLRP3 inflammasome", "result": 0.01, "unit": "µM"}
    ]},
    {"smiles": "CC(C)(CO)CNc1cc(N)nc2cc(-c3ccn[nH]3)sc12.Cl", "note": "[Compound 115s, 3-((5-amino-2-(1H-pyrazol-5-yl)thieno[3,2-b]pyridin-7-yl)amino)-2,2-dimethyl-1-propanol hydrochloride]", "values": [
      {"measurement": "tumor volume (mm^3) day 0", "setting": "[1]; [2]", "result": "74.63 ± 6.26", "unit": "mm^3"},
      {"measurement": "tumor volume (mm^3) day 14", "setting": "[1]; [2]", "result": "499.05 ± 211.28", "unit": "mm^3"},
      {"measurement": "TGI (%)", "setting": "[1]; [2]", "result": 77.46, "unit": "%"},
      {"measurement": "tumor volume (mm^3) day 0", "setting": "[1]; [3]", "result": "74.03 ± 4.69", "unit": "mm^3"},
      {"measurement": "tumor volume (mm^3) day 14", "setting": "[1]; [3]", "result": "61.66 ± 41.15", "unit": "mm^3"},
      {"measurement": "TGI (%)", "setting": "[1]; [3]", "result": 144.99, "unit": "%"},
      {"measurement": "tumor volume (mm^3) day 0", "setting": "[1]; [4]", "result": "74.00 ± 4.41", "unit": "mm^3"},
      {"measurement": "tumor volume (mm^3) day 14", "setting": "[1]; [4]", "result": "0.00 ± 0.00", "unit": "mm^3"},
      {"measurement": "TGI (%)", "setting": "[1]; [4]", "result": 200.00, "unit": "%"},
      {"measurement": "tumor inhibitory effect on the non-administration side tumors", "setting": "[1]; intratumoral injection at the other side, in words", "result": "significant dose-dependent tumor inhibitory effect"},
      {"measurement": "anti-tumor effect on the subcutaneous tumor at the administration side", "setting": "[1]; intratumoral injection, compared with the vehicle group, in words", "result": "significant dose-dependent anti-tumor effect"},
      {"measurement": "tumor inhibitory effect on bilateral CT26 subcutaneous tumors", "setting": "[1]; intratumoral injection, summary in words", "result": "significant dose-dependent tumor inhibitory effect"},
      {"measurement": "tumor volume (mm^3) day 0", "setting": "[1]; [5]", "result": "85.21 ± 7.40", "unit": "mm^3"},
      {"measurement": "tumor volume (mm^3) day 14", "setting": "[1]; [5]", "result": "1269.99 ± 140.11", "unit": "mm^3"},
      {"measurement": "TGI (%)", "setting": "[1]; non-administration side, 10 μg/time", "result": 38.94, "unit": "%"},
      {"measurement": "tumor volume (mm^3) day 0", "setting": "[1]; [6]", "result": "85.31 ± 6.01", "unit": "mm^3"},
      {"measurement": "tumor volume (mm^3) day 14", "setting": "[1]; [6]", "result": "869.87 ± 99.95", "unit": "mm^3"},
      {"measurement": "TGI (%)", "setting": "[1]; non-administration side, 50 μg/time", "result": 59.57, "unit": "%"},
      {"measurement": "tumor volume (mm^3) day 0", "setting": "[1]; [7]", "result": "85.17 ± 6.28", "unit": "mm^3"},
      {"measurement": "tumor volume (mm^3) day 14", "setting": "[1]; [7]", "result": "462.85 ± 52.91", "unit": "mm^3"},
      {"measurement": "TGI (%)", "setting": "[1]; non-administration side, 250 μg/time", "result": 80.54, "unit": "%"}
    ]},
    {"smiles": "Nc1cc(NCC(F)F)c2sc(-c3ccn[nH]3)cc2n1", "note": "[Compound 116s, N^7-(2,2-difluoroethyl)-2-(1H-pyrazol-5-yl)thieno[3,2-b]pyridine-5,7-diamine hydrochloride]", "values": [
      {"measurement": "EC50", "setting": "hNLRP3 inflammasome", "result": 0.05, "unit": "µM"}
    ]},
    {"smiles": "Nc1cc(NCC2CCOCC2)c2sc(-c3ccn[nH]3)cc2n1", "note": "[Compound 120s, 2-(1H-pyrazol-5-yl)-N^7-((tetrahydro-2H-pyran-4-yl)methyl)thieno[3,2-b]pyridine-5,7-diamine hydrochloride]", "values": [
      {"measurement": "EC50", "setting": "hNLRP3 inflammasome", "result": 0.03, "unit": "µM"}
    ]}
  ]
}
